US20150011508A1, “COMPOUNDS AND COMPOSITIONS AS C-KIT KINASE INHIBITORS” (priority 2011, published 2015)
pIC50: −log10 of the molar value.

Biological target: T1, c-kit (Homo sapiens, UniProt P10721)
T1 construct: human Mo7e cells which endogenously express c-kit; endogenous in cells; host or cells: human Mo7e cells (SCF-dependent promegakaryocytic leukemia line)
Assay: Mo7e cell proliferation assay (SCF dependent proliferation)
Format: cell-based
Details: Table 1; human Mo7e cells stimulated with human recombinant SCF, 48 h, CellTiter Glo; 1% FBS (footnote)
Description: Compounds of Formula (I) and Formula (II) provided herein were assayed to measure their capacity to inhibit c-kit and PDGFR kinases using the appropriate assay described below: c-Kit inhibition was evaluated using the Mo7e cell proliferation assay, and PDGFR inhibition was evaluated using the Rat A10 cell proliferation assay and the Human TGHA-VSMC cell proliferation assay.
The compounds of Table 1 and Table 2 were tested for inhibition of SCF dependent proliferation using human Mo7e cells which endogenously express c-kit in a 384 well format. […] After 48 hours of incubation at 37° C., cell viability was measured by adding 25 uL of CellTiter Glo (Promega) to the cells and the luminescence was measured by a CLIPR CCD camera (Molecular Devices).
The IC50 value is given as that concentration of the test compound in question that provoke a response halfway between the baseline and maximum responses.

T1 sequence (P10721 26-976): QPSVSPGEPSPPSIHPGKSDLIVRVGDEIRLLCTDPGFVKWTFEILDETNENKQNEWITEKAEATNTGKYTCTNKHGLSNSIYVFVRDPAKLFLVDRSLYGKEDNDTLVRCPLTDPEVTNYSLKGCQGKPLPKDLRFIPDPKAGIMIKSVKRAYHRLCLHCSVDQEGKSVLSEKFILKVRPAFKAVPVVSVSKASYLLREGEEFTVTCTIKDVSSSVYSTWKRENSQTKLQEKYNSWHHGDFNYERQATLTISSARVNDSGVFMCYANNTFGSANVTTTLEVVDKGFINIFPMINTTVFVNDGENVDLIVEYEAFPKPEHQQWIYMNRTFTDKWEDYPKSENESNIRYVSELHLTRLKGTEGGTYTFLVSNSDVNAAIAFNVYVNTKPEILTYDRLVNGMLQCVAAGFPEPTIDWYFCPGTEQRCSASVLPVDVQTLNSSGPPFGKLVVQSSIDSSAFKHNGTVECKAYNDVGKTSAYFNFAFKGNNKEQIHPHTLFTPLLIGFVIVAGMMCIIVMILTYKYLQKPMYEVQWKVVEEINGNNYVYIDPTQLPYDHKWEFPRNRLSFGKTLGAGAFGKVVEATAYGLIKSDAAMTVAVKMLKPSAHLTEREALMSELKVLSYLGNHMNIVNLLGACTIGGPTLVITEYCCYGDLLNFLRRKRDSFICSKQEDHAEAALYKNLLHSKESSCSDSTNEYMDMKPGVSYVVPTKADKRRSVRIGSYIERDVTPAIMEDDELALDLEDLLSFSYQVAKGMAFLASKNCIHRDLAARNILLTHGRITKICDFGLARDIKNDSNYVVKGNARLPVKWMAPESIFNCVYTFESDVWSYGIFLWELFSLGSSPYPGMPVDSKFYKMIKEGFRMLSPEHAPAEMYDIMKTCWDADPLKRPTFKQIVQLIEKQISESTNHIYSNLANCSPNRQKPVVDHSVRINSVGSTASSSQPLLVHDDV

Row | Compound | pIC50
1 | Cc1nc(-c2ccc(C)c(NC(=O)c3cnc4ccc(-c5c(C)nn(S(C)(=O)=O)c5C)cn34)c2)no1 [F105, 6-(3,5-dimethyl-1-(methylsulfonyl)-1H-pyrazol-4-yl)-N-(2-methyl-5-(5-methyl-1,2,4-oxadiazol-3-yl)phenyl)imidazo[1,2-a]pyridine-3-carboxamide] | 7.42
2 | Cc1nc(-c2ccc(C)c(NC(=O)c3cnc4ccc(-c5c(C)nn(C)c5C)cn34)c2)no1 [F100] | 7.72
3 | Cc1ccc(-c2noc(CCC(C)(C)O)n2)cc1NC(=O)c1cnc2cc(C3CC3)ccn12 [F64] | 7.32
4 | Cc1ccc2ncc(C(=O)Nc3cc(-c4noc(COCC(F)(F)F)n4)ccc3C)n2c1 [F79] | 7.89
5 | CCN(CC)C(=O)CCc1nc(-c2ccc(C)c(NC(=O)c3cnc4ccccn34)c2)no1 [F4] | 7.17
6 | [2H]c1c([2H])c([2H])n2c(C(=O)Nc3cc(-c4noc(COCCOC)n4)ccc3C)cnc2c1[2H] [F53, N-(5-(5-((2-methoxyethoxy)methyl)-1,2,4-oxadiazol-3-yl)-2-methylphenyl)5,6,7,8,deutero-imidazo[1,2-a]pyridine-3-carboxamide] | 7.21
7 | Cc1ccc(-c2noc(CCOCC(F)(F)F)n2)cc1NC(=O)c1cnc2ccccn12 [F28] | 8.15
8 | Cc1ccc(-c2noc(CCC(=O)OC(C)C)n2)cc1NC(=O)c1cnc2ccccn12 [F55a, isopropyl 3-(3-(3-(imidazo[1,2-a]pyridine-3-carboxamido)-4-methylphenyl)-1,2,4-oxadiazol-5-yl)propanoate] | 7.04
9 | Cc1ccc(-c2noc(CNC(=O)C(F)(F)F)n2)cc1NC(=O)c1cnc2ccccn12 [F24, N-(2-methyl-5-(5-((2,2,2-trifluoroacetamido)methyl)-1,2,4-oxadiazol-3-yl)phenyl)imidazo[1,2-a]pyridine-3-carboxamide] | 7.25
10 | Cc1ccn2c(C(=O)Nc3cc(-c4noc(NCCF)n4)ccc3C)cnc2c1 [F68] | 7.27
11 | CCOC(=O)c1nc(C)c(-c2ccc3ncc(C(=O)Nc4cc(-c5noc(C)n5)ccc4C)n3c2)s1 [F261, ethyl 4-methyl-5-(3-((2-methyl-5-(5-methyl-1,2,4-oxadiazol-3-yl)phenyl)carbamoyl)imidazo[1,2-a]pyridin-6-yl)thiazole-2-carboxylate] | 7.08
12 | Cc1nc(-c2ccc(C)c(NC(=O)c3cnc4ccc(-c5sc(C)nc5C)cn34)c2)no1 [F48] | 8.15
13 | Cc1ccn2c(C(=O)Nc3cc(-c4noc(NCC(C)C)n4)ccc3C)cnc2c1 [F69] | 7.80
14 | Cc1ccc(-c2noc(CC[C@@](C)(O)C(F)(F)F)n2)cc1NC(=O)c1cnc2cc(F)ccn12 [F89] | 7.39
15 | CCOC(=O)Cc1nc(-c2ccc(C)c(NC(=O)c3cnc4ccccn34)c2)no1 [F7] | 7.06
16 | CCN(Cc1nc(-c2ccc(C)c(NC(=O)c3cnc4ccccn34)c2)no1)S(C)(=O)=O [F22] | 7.05
17 | CC(=O)c1sc(-c2ccc3ncc(C(=O)Nc4cc(-c5noc(C)n5)ccc4C)n3c2)nc1C [F256, 6-(5-acetyl-4-methylthiazol-2-yl)-N-(2-methyl-5-(5-methyl-1,2,4-oxadiazol-3-yl)phenyl)imidazo[1,2-a]pyridine-3-carboxamide] | 7.27
18 | Cc1ccc2ncc(C(=O)Nc3cc(-c4noc(CCC(C)(C)O)n4)ccc3C)n2c1 [F57] | 7.01
19 | Cc1ccc(-c2noc(CCCC(F)(F)F)n2)cc1NC(=O)c1cnc2ccccn12 [F80] | 8.30
20 | Cc1ccc(-c2noc(CC(C)(O)C(F)(F)F)n2)cc1NC(=O)c1cnc2ccccn12 (stereo not drawn) [F15] | 7.09
21 | COC(=O)NCc1nc(-c2ccc(C)c(NC(=O)c3cnc4cc(-c5cnn(CCN6CCOCC6)c5)ccn34)c2)no1 [F41] | 7.64
22 | [2H]C([2H])([2H])c1ccn2c(C(=O)Nc3cc(-c4noc(COCC(F)(F)F)n4)ccc3C)cnc2c1 [F78, 7-methyl-d3-N-(2-methyl-5-(5-((2,2,2-trifluoroethoxy)methyl)-1,2,4-oxadiazol-3-yl)phenyl)imidazo[1,2-a]pyridine-3-carboxamide] | 8.05
23 | Cc1ccc(-c2noc(CN(C)C(=O)OC(C)(C)C)n2)cc1NC(=O)c1cnc2ccccn12 [F19, tert-butyl (3-(3-(imidazo[1,2-a]pyridine-3-carboxamido)-4-methylphenyl)-1,2,4-oxadiazol-5-yl)methyl(methyl)carbamate] | 7.24
24 | Cc1ccc2ncc(C(=O)Nc3cc(-c4noc(CC[C@](C)(O)C(F)(F)F)n4)ccc3C)n2c1 [F84] | 7.52
25 | COCCOCc1nc(-c2ccc(C)c(NC(=O)c3cnc4ccccn34)c2)no1 [F26] | 7.23
26 | Cc1ccc(-c2noc(CC(=O)OC(C)(C)C)n2)cc1NC(=O)c1cnc2ccccn12 [F27, tert-butyl 2-(3-(3-(imidazo[1,2-a]pyridine-3-carboxamido)-4-methylphenyl)-1,2,4-oxadiazol-5-yl)acetate] | 7.66
27 | CC(=O)CCc1nc(-c2ccc(C)c(NC(=O)c3cnc4ccccn34)c2)no1 [F5] | 7.49
28 | Cc1ccc(-c2noc(CCC(C)(C)O)n2)cc1NC(=O)c1cnc2ccc(F)cn12 [F36, 6-fluoro-N-(5-(5-(3-hydroxy-3-methylbutyl)-1,2,4-oxadiazol-3-yl)-2-methylphenyl)imidazo[1,2-a]pyridine-3-carboxamide] | 7.06

Same assay, conditions: Table 2; human Mo7e cells stimulated with human recombinant SCF, 48 h, CellTiter Glo; 1% FBS (footnote)

Row | Compound | pIC50
29 | Cc1nc(-c2ccc(C)c(NC(=O)c3cnc4ccc(-c5nc(C)c(C(=O)NCCO)s5)cn34)c2)no1 [F242] | 6.81
30 | Cc1ccc(-c2noc(C(C)(C)N)n2)cc1NC(=O)c1cnc2ccccn12 [F218] | 5.98
31 | Cc1ccc(-c2noc(CCS(N)(=O)=O)n2)cc1NC(=O)c1cnc2ccccn12 [F116] | 6.13
32 | Cc1ccc(-c2noc(CCCNC(=O)OC(C)(C)C)n2)cc1NC(=O)c1cnc2ccccn12 [F111] | 6.44
33 | CCNC(=O)Cc1nc(-c2ccc(C)c(NC(=O)c3cnc4ccccn34)c2)no1 [F209] | 6.50
34 | COCCCN(Cc1nc(-c2ccc(C)c(NC(=O)c3cnc4ccccn34)c2)no1)C(=O)C(F)(F)F [F151] | 6.87
35 | COCc1nc(-c2ccc(C)c(NC(=O)c3cnc4ccccn34)c2)no1 [F130] | 6.85
36 | Cc1ccc(-c2noc(CCC(C)O)n2)cc1NC(=O)c1cnc2ccccn12 (stereo not drawn) [F121] | 6.98
37 | Cc1nc(-c2ccc(C)c(NC(=O)c3cnc4ccc(-c5c(C)nn(CC(=O)O)c5C)cn34)c2)no1 [F235] | 5.61
38 | Cc1cc(-c2ccc3ncc(C(=O)Nc4cc(-c5noc(C)n5)ccc4C)n3c2)n(C)n1 [F207] | 6.65
39 | COC(=O)NCc1nc(-c2ccc(C)c(NC(=O)c3cnc4ccc(F)cn34)c2)no1 [F167, methyl (3-(3-(6-fluoroimidazo[1,2-a]pyridine-3-carboxamido)-4-methylphenyl)-1,2,4-oxadiazol-5-yl)methylcarbamate] | 6.78
40 | COC(=O)NC(C)(C)c1nc(-c2ccc(C)c(NC(=O)c3cnc4ccccn34)c2)no1 [F148] | 6.68
41 | COCCNc1nc(-c2ccc(C)c(NC(=O)c3cnc4cc(C)ccn34)c2)no1 [F197] | 6.96
42 | COCCOC(=O)NCCc1nc(-c2ccc(C)c(NC(=O)c3cnc4ccccn34)c2)no1 [F123] | 6.52
43 | Cc1ccc(-c2noc(CCC(C)(C)O)n2)cc1NC(=O)c1cnc2c(N)cccn12 [F246] | 5.74
44 | Cc1nc(-c2ccc(C)c(NC(=O)c3cnc4ccc(C#N)cn34)c2)no1 [F185] | 6.29
45 | Cc1ccc(-c2noc(NCC(C)(C)O)n2)cc1NC(=O)c1cnc2cc(F)ccn12 [F192] | 6.50
46 | COCCOCc1nc(-c2cc(NC(=O)c3cnc4ccccn34)c(C)cc2C)no1 [F190] | 6.92

Row | Compound | pIC50
47 | Cc1ccc(-c2noc(CO)n2)cc1NC(=O)c1cnc2ccccn12 [F124] | 6.66
48 | Cc1ccc(-c2noc(CCNS(C)(=O)=O)n2)cc1NC(=O)c1cnc2ccccn12 [F114] | 6.39
49 | Cc1ccc(-c2noc(CCC(C)(C)O)n2)cc1NC(=O)c1cnc2ccccn12 [F119] | 6.95
50 | Cc1ccn2c(C(=O)Nc3cc(-c4noc(CC[C@@](C)(OC(=O)[C@@H](N)C(C)C)C(F)(F)F)n4)ccc3C)cnc2c1 [F251] | 6.85
51 | Cc1nc(-c2ccc(C)c(NC(=O)c3cnc4ccc(-c5c(C)nn(CC(=O)OC(C)(C)C)c5C)cn34)c2)no1 [F234] | 6.68
52 | Cc1nc(-c2ccc(C)c(NC(=O)c3cnc4ccc(CCN5CCOCC5)cn34)c2)no1 [F212] | 6.16
53 | Cc1nc(-c2ccc(C)c(NC(=O)c3cnc4ccc(-c5cnccc5C)cn34)c2)no1 [F202] | 6.87
54 | Cc1nc(-c2ccc(C)c(NC(=O)c3cnc4ccc(C(N)=S)cn34)c2)no1 [F241] | 6.90
55 | Cc1nc(-c2ccc(C)c(NC(=O)c3cnc4ccc(-c5cnccn5)cn34)c2)no1 [F201] | 6.90
56 | Cc1ccc(-c2noc(CCN)n2)cc1NC(=O)c1cnc2ccccn12 [F226] | 5.66
57 | Cc1ccc(-c2noc(CC(C)(C)O)n2)cc1NC(=O)c1cnc2ccccn12 [F138] | 6.63
58 | COC(=O)NCc1nc(-c2ccc(C)c(NC(=O)c3cnc4cc(C(F)(F)F)ccn34)c2)no1 [F170] | 6.34
59 | Cc1ccc(-c2noc(C[C@@H](C)NC(=O)OC(C)(C)C)n2)cc1NC(=O)c1cnc2ccccn12 [F142] | 6.53
60 | Cc1ccc(-c2noc(CNC(=O)N(C)C)n2)cc1NC(=O)c1cnc2ccccn12 [F164] | 6.02
61 | Cc1ccc(-c2noc(CF)n2)cc1NC(=O)c1cnc2ccccn12 [F161] | 6.76
62 | Cc1nc(-c2ccc(C)c(NC(=O)c3cnc4ccc(-c5nc(C)c(C(=O)NCCN6CCN(C)CC6)s5)cn34)c2)no1 [F243] | 6.71
63 | CC(=O)NCCCc1nc(-c2ccc(C)c(NC(=O)c3cnc4ccccn34)c2)no1 [F222] | 5.88
